{"source": "patent US20240158384A1", "about": "“CB2 RECEPTOR AGONISTS” (The Board of Trustees of the Leland Stanford Junior …, priority 2020, published 2024)", "key": {"DA response to reward": {"tested_on": "DA response to reward", "experiment": "GRAB-DA fiber photometry during operant task for sucrose reward", "type": "in vivo, mouse", "settings": "injected 30 min before task, n=3, vs vehicle", "protocol": "In a second experiment, the same mice (n=3) were trained to nose poke a dedicated port to gain access to sucrose reward. During the task, GRAB-DA was used to measure DA release in response to reward. After ˜2 weeks of training, the effect of Compound 22 vs. vehicle on the DA response to reward was examined. On the first day, either drug or vehicle was injected followed by waiting 30 min, and then recording DA during the task. The order of drug vs. vehicle was counterbalanced between mice. […] Thus, Compound 22 appears to be capable of modulating both spontaneous and reward-related DA release."}, "hERG": {"target": "hERG (Homo sapiens, UniProt Q12809)", "sequence (Q12809 whole entry)": "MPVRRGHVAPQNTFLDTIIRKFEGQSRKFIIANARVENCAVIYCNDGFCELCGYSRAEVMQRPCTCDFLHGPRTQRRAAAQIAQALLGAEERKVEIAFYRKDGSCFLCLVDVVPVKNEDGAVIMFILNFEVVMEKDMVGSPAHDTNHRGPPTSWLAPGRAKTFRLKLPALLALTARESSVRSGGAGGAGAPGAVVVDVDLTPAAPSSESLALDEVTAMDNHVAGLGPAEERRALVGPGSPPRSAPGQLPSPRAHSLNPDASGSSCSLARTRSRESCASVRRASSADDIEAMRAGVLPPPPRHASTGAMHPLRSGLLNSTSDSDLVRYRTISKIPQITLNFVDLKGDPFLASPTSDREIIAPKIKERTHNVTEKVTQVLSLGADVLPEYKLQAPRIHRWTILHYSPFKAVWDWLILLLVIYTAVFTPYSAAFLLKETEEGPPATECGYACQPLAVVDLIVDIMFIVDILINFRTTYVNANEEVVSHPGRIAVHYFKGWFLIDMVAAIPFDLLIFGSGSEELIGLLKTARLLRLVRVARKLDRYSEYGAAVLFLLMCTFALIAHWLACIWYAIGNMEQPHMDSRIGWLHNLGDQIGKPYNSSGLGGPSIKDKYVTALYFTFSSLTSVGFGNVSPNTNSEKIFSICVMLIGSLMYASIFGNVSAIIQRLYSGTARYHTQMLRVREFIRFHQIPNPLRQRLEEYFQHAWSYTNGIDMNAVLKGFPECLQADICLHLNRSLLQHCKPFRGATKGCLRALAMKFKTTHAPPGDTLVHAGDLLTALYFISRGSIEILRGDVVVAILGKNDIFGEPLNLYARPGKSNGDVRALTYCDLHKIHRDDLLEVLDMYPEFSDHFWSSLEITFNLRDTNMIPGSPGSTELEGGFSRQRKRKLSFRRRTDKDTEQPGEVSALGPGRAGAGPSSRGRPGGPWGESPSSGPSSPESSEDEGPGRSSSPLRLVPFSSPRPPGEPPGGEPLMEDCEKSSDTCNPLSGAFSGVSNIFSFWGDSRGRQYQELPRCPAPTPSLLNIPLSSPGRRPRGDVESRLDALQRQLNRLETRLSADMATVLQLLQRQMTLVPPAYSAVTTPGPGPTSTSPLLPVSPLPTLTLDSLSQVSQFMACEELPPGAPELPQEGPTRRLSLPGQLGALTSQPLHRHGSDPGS", "experiment": "hERG activity", "protocol": "(§1) Detailed characterization data was collected for Compound 22. Primary assays were carried out according to Examples 2 and 3, while other assays were carried out according to standard methods."}, "GPR18": {"target": "T1, GPR18 (Homo sapiens, UniProt Q14330)", "T1 sequence (Q14330 1-331)": "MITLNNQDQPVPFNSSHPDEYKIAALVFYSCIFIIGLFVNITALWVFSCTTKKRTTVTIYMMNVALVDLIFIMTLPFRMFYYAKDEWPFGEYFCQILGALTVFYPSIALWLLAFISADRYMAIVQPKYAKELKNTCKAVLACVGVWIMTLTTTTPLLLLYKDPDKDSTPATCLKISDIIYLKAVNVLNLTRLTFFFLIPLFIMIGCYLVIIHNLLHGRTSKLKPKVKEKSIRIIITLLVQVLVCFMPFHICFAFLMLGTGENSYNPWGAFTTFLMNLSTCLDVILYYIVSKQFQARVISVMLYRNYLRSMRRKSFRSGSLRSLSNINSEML", "experiment": "Off-target activity GPR18 (agonist, antagonist, PAM modes)", "type": "cell-based", "protocol": "as §1"}, "Male C57Bl6J mice": {"tested_on": "Male C57Bl6J mice", "experiment": "Amphetamine-induced hyperactivity test", "type": "in vivo, mouse", "settings": "compound i.p. 30 min before AMPH 2 mg/kg i.p., vs vehicle", "protocol": "Male C57Bl6J mice were evaluated in an activity chamber apparatus for the amphetamine-induced hyperactivity test. […] To determine the effects of Compound 22 on amphetamine-induced hyperactivity, mice were placed in the activity chamber for a 30 min baseline period. At the end of that period, mice were removed from the chamber, dosed intraperitoneally with Compound 22 (1 mg/kg, 3 mg/kg, or 10 mg/kg) or vehicle and returned to the home cage. Thirty minutes after dosing, mice were dosed (ip) with amphetamine (AMPH, 2 mg/kg) and immediately placed into the activity chamber for a one-hour post-dose session."}, "[1]": {"experiment": "Plasma and brain pharmacokinetics in mice", "type": "in vivo", "settings": "male, C57BL/6, mouse, 10 mg/kg", "protocol": "Plasma and brain concentrations of Compounds 11, 22, 16, and 24 were determined by LC-MS/MS after IV and PO dosing in male C57BL/6 mice at 10 mg/kg. Data are shown in FIGS. 10A-10D for Compounds 11, 22, 16, and 24, respectively.\nas §1"}, "Plasma protein binding": {"experiment": "Plasma protein binding", "type": "in vitro ADME", "protocol": "as §1"}, "[2]": {"tested_on": "spontaneous DA transients in NAc", "experiment": "GRAB-DA fiber photometry, spontaneous DA transients", "type": "in vivo, mouse", "protocol": "(§2) For this study, a probe was implanted into the nucleus accumbens (NAc) (FIG. 11A). Following baseline measurements, mice were dosed with vehicle or Compound 22 (10 mg/kg, i.p) followed 40 min later by a single dose of AMPH (2 mg/kg, i.p.). Samples were collected for 2 hr post-dosing. Extracellular dopamine (DA) levels in the dialysate were quantified by HPLC with electrochemical detection (FIG. 11B). […] Compound 22 modulates both spontaneous and reward-related DA release. To confirm these findings in parallel experiments, GPCR-activation based-DA (GRAB-DA) was used, which is a human D2R-GFP chimera sensor that produces fluorescence changes reliably and with sub-second kinetics in response to extracellular DA concentration changes in behaving animals (Sun et al. Cell 2018; 174(2):481-96.e19). Mice were injected with an adeno-associated virus (AAV) carrying GRAB-DA into the (NAc) (FIG. 11C) and allowed to recover for −2 weeks before fiber photometry experiments were performed. In the first pilot experiment, baseline DA release were recorded for 5 min before mice (n=3) were injected with either Compound 22 or vehicle and then recording was continued for 45 min. The rate of spontaneous DA transients was compared in the pre-injection (0-5 min) vs post-injection (35-50 min) periods; there was a significant time x drug interaction: F(1,4)=11.91, P=0.026."}, "human CB2R": {"target": "human CB2R (Homo sapiens, UniProt P34972)", "sequence (P34972 whole entry)": "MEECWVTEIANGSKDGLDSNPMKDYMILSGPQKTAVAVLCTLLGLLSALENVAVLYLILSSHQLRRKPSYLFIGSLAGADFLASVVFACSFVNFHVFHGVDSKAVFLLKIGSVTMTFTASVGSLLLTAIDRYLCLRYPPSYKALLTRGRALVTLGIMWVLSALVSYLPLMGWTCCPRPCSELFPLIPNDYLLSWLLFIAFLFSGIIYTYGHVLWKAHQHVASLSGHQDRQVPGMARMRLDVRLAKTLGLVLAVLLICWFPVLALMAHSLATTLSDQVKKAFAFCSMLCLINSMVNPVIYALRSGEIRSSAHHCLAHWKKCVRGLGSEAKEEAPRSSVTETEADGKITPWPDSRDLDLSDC", "experiment": "PathHunter β-Arrestin assay, beta-arrestin recruitment", "type": "cell-based", "protocol": "The assay was performed using the PathHunter β-Arrestin human CB2 cell line (catalog no. 93-0706C2) and using the PathHunter® β-Arrestin Assay for GPCR Cell Lines (source: DiscoveRx, Fremont, CA, USA), according to the manufacturer's protocol (https://www.discoverx.com/tools-resources/document-resource-library/documents/user-manual-pathhunter-% CE % B2-arrestin-assay-for-gpcr-c). Briefly, cells were seeded at a density of 10,000 cells per well in a 96-well plate and incubated overnight (16-18 h) in a humidified atmosphere at 37° C. and 5% C02. Agonist prepared in PBS was added and the assay plate incubated for 3 h in a humidified atmosphere at 37° C. and 5% C02. Working detection solution was added and the plate was incubated for 1 h in the dark at room temperature. Chemiluminescence was measured on an CLARIOstar plate reader (BMG LABTECH Inc., Cary, NC, USA)."}, "Brain protein binding": {"experiment": "Brain protein binding", "type": "in vitro ADME", "settings": "brain tissue", "protocol": "as §1"}, "[3]": {"tested_on": "extracellular dopamine (DA) in nucleus accumbens", "experiment": "Microdialysis of nucleus accumbens, extracellular dopamine after AMPH", "type": "in vivo, mouse", "settings": "10 mg/kg i.p., 40 min before AMPH 2 mg/kg i.p.; n=1/group", "protocol": "as §2"}, "Aqueous solubility": {"experiment": "Aqueous solubility", "type": "physicochemical", "settings": "aqueous medium (not further specified)", "protocol": "as §1"}}, "note": "“Also recorded” adds a separate entry of the source.", "data": [{"smiles": "CC(C)(CO)c1cc(NC(=O)N2CCCN2c2ccc(C(F)(F)F)cc2)no1", "note": "[Compound 22, N-(5-(1-hydroxy-2-methylpropan-2-yl)isoxazol-3-yl)-2-(4-(trifluoromethyl)phenyl)pyrazolidine-1-carboxamide]", "values": [{"measurement": "Ability to perform task and maximum reward-induced DA release", "setting": "DA response to reward", "value": "not a significant effect on the ability of mice to perform this task or the maximum reward-induced DA release"}, {"measurement": "DA response curve to sucrose reward", "setting": "DA response to reward", "value": "appeared to widen the DA response curve"}, {"measurement": "IC50", "setting": "hERG", "value": "> 10", "unit": "µM"}, {"measurement": "EC50", "setting": "GPR18", "value": "> 10", "unit": "µM"}, {"measurement": "IC50", "setting": "GPR18", "value": "> 10", "unit": "µM"}, {"measurement": "Amphetamine-induced hyperactivity", "setting": "Male C57Bl6J mice", "value": "reduces the hyperactivity induced by AMPH compared to vehicle controls, with significant reduction at 10 mg/kg; also recorded: able to reduce hyperactivity at doses as low as 0.1 mg/kg, i.p"}, {"measurement": "Kp at 24 h", "setting": "[1]; in vivo, Via oral administration, 3 mice, at 24 h, read-out: Brain to plasma ratio", "value": 0.97}, {"measurement": "bioavailability", "setting": "[1]; plasma, Oral bioavailability", "value": 100, "unit": "%"}, {"measurement": "melting point", "value": "142 to 146", "unit": "°C"}, {"measurement": "fraction unbound", "setting": "Plasma protein binding", "value": 0.0631}, {"measurement": "Shape of the spontaneous DA transients", "setting": "[2]; before and after injection", "value": "widening the curve"}, {"measurement": "Rate of spontaneous DA transients", "setting": "[2]; pre-injection (0-5 min) vs post-injection (35-50 min), n=3", "value": "reduced the rate of spontaneous transients"}, {"measurement": "EC50", "setting": "human CB2R", "value": 0.578, "unit": "µM"}, {"measurement": "Activation of beta-arrestin pathway (in words)", "setting": "human CB2R; hCB2, CP-55940 as control", "value": "weak beta-arrestin activity"}, {"measurement": "fraction unbound", "setting": "Brain protein binding", "value": 0.0198}, {"measurement": "Extracellular DA release after AMPH dosing", "setting": "[3]", "value": "reduced extracellular DA release after AMPH dosing"}, {"measurement": "solubility", "setting": "Aqueous solubility", "value": 17.4, "unit": "µg/mL"}]}]}
